From US10959961B2, “Methods of administering anionic cannabinoid molecules dissolved in water” (priority 2018, dated 2021) come the findings set out here.

The nature of series [1]: Color of phenolate in carbonate/bicarbonate buffer at variable pH (Example 19). The note with it: approximately 1 gram-per-liter. The series is classed as physicochemical. How it is done:
1 gram of cannabidiol was dissolved in 6.6 milliliters of 0.5 molar potassium hydroxide in ethanol to produce 2-[(1R,6R)-6-isopropenyl-3-methylcyclohex-2-en-1-yl]-3-hydroxy-5-pentylphenolate. The solution was then diluted with 100 millimolar sodium carbonate in water to a final volume of 50 milliliters to produce a solution comprising 2-[(1R,6R)-6-isopropenyl-3-methylcyclohex-2-en-1-yl]-3-hydroxy-5-pentylphenolate at approximately 20-grams-per-liter. 0.5 milliliters of the 2-[(1R,6R)-6-isopropenyl-3-methylcyclohex-2-en-1-yl]-3-hydroxy-5-pentylphenolate solution was added to each of 25 test tubes containing 9.5 milliliters of 100 millimolar (0.1 M) carbonate/bicarbonate (CO3^2−/HCO3^−) buffer according to Table 1. Each test tube contained approximately 10 milligrams of 2-[(1R,6R)-6-isopropenyl-3-methylcyclohex-2-en-1-yl]-3-hydroxy-5-pentylphenolate at a concentration of approximately 1 gram-per-liter. pH's were confirmed by multiple different measurements.
It was expected that 2-[(1R,6R)-6-isopropenyl-3-methylcyclohex-2-en-1-yl]-3-hydroxy-5-pentylphenolate would reform cannabidiol at pH's below a threshold pH as evidenced by an expected color change from purple (indicative of 2-[(1R,6R)-6-isopropenyl-3-methylcyclohex-2-en-1-yl]-3-hydroxy-5-pentylphenolate) to colorless (indicative of cannabidiol).

The test system of series [2] is healthy, consenting adults. Put plainly: Qualitative assessment of pharmacokinetics in humans, oral self-administration (Example 23). Type of series: in vivo, human. The protocol:
Approximately 60 milligrams of 2-[(1R,6R)-6-isopropenyl-3-methylcyclohex-2-en-1-yl]-3-hydroxy-5-pentylphenolate prepared from crude industrial hemp extract was dissolved in water as described in Example 16, buffered to a pH of 9.1, and added to a 296 milliliter bottle of DASANI® purified water. […] A healthy, consenting adult self-administered the entire bottle of 60 milligrams of 2-[(1R,6R)-6-isopropenyl-3-methylcyclohex-2-en-1-yl]-3-hydroxy-5-pentylphenolate in water orally over 5 to 10 minutes. […] The individual described the psychoactive effect as a pleasant sensation accompanied by both an enhanced ability to focus and elevated alertness.
Approximately 30 milligrams of 2-[(1R,6R)-6-isopropenyl-3-methylcyclohex-2-en-1-yl]-3-hydroxy-5-pentylphenolate prepared from crude industrial hemp extract was dissolved in water, buffered to a pH of 9.1, and added to each of four 296 milliliter bottles of DASANI® purified water. […] Four healthy, consenting adults orally self-administered varying amounts of the four solutions over 5 to 10 minutes.

Series [3] can be described thus: Third-party HPLC cannabinoid profile of olive oil extract of the aqueous solution (Example 24). Type of series: physicochemical. The protocol: Pure cannabidiol was deprotonated and dissolved in water using a strategy similar to those described in Examples 16 and 19. Acetic acid was then added to 100 milliliters of the water, dropwise, until the purple color disappeared to reform cannabidiol. Reprotonated cannabidiol was extracted from the water using 4 milliliters of olive oil. Two 1 milliliter samples of the olive oil were sent to Botanacor Laboratories (Boulder, Colo.) for cannabinoid profile analysis using an Agilent Technologies (Santa Clara, Calif.) High Performance Liquid Chromatography instrument with a diode array detector. Botanacor Laboratories is ISO/IEC 17025 accredited for cannabinoid potency determination.

Series [4] in a line: Commercial viability of beverages: phenolate solution added to bottled water (Example 21). The series is classed as physicochemical. The protocol:
20 milliliters of water was removed from a 1 liter bottle of ESSENTIA® OVERACHIEVING H2O®. ESSENTIA® OVERACHIEVING H2O® contains purified water, sodium bicarbonate, dipotassium phosphate, magnesium sulfate, and calcium chloride, and its pH was determined to be about 9.5. The 20 milliliters of removed water was replaced with 20 milliliters of the 20 gram-per-liter solution of 2-[(1R,6R)-6-isopropenyl-3-methylcyclohex-2-en-1-yl]-3-hydroxy-5-pentylphenolate, which is described in Example 19, and the bottle was sealed using the screw-cap top of the bottle to produce a sealed container containing approximately 400 milligrams of 2-[(1R,6R)-6-isopropenyl-3-methylcyclohex-2-en-1-yl]-3-hydroxy-5-pentylphenolate. The pH of the liquid was measured and determined to be about 10.
5 milliliters of water was removed from a 500 milliliter bottle of DASANI® purified water. DANSANI® purified water contains purified water, magnesium sulfate, potassium chloride, and sodium chloride, and its pH was determined to be about 7.0. The 5 milliliters of removed water was replaced with 5 milliliters of the 20 gram-per-liter solution of 2-[(1R,6R)-6-isopropenyl-3-methylcyclohex-2-en-1-yl]-3-hydroxy-5-pentylphenolate, which is described in Example 19, and the bottle was sealed using the screw-cap top of the bottle to produce a sealed container containing approximately 100 milligrams of 2-[(1R,6R)-6-isopropenyl-3-methylcyclohex-2-en-1-yl]-3-hydroxy-5-pentylphenolate. The pH of the liquid was measured and determined to be about 9.5.
0.5 milliliters of water was removed from a 500 milliliter bottle of DASANI® purified water. […] The pH of the liquid was measured and determined to be about 8.5.

Series [5] in a line: Removal of ethanol in a vacuum oven up to 157° C. (Example 15). Type of series: physicochemical. The note with it: oven under vacuum, ramped to 157° C.; purple taffy-like product. The protocol:
372 grams of crude industrial hemp extract containing approximately 65% cannabidiol was dissolved in ethanol at a weight ratio of 1:2 crude to ethanol. 43.2 grams of potassium hydroxide was slowly added to the hemp extract in ethanol, and the solution was stirred while heating at 55° C. The solution was then placed in an oven under vacuum and slowly ramped to a temperature of 157° C. over the course of approximately 1 hour, at which time heating was discontinued. The solution was then left in the oven under vacuum overnight.
The product produced by ethanol removal in an oven under vacuum was purple with a taffy-like consistency indicative of polymer formation. The product lacked appreciable solubility in water.

A short description of series [6]: Adjusting the pH of the phenolate emulsion to 9.1 with sodium bicarbonate (Examples 7 and 8). Type of series: physicochemical. The note with it: emulsion adjusted to pH 9.1, color change and lipid phase separation. The protocol:
1.65 grams of carbon-filtered industrial hemp extract comprising approximately 65% cannabidiol was dissolved in 10 milliliters of 420 millimolar potassium hydroxide in ethanol to convert the cannabidiol into 2-[(1R,6R)-6-isopropenyl-3-methylcyclohex-2-en-1-yl]-3-hydroxy-5-pentylphenolate.
1 gram of cannabidiol isolate was dissolved in 10 milliliters of 380 millimolar potassium hydroxide in ethanol to convert the cannabidiol into 2-[(1R,6R)-6-isopropenyl-3-methylcyclohex-2-en-1-yl]-3-hydroxy-5-pentylphenolate.

The nature of series [7]: Approximate pKa of cannabidiol by color at varying sodium bicarbonate (Example 20). Type of series: physicochemical. The note with it: from color change at pH 8.0 and 8.3, read-out: pKa of cannabidiol in dilute aqueous solution. How it is done: This example confirms that 2-[(1R,6R)-6-isopropenyl-3-methylcyclohex-2-en-1-yl]-3-hydroxy-5-pentylphenolate is viable for inclusion in beverages formulated for human consumption. 0.5 milliliters of the 20 gram-per-liter solution of 2-[(1R,6R)-6-isopropenyl-3-methylcyclohex-2-en-1-yl]-3-hydroxy-5-pentylphenolate described in Example 19 was diluted with 9.5 milliliters of distilled water comprising varying concentrations of sodium bicarbonate, and color was monitored as shown in Table 2. pH's were confirmed by multiple different measurements.
A color change was visually apparent at a pH of 8.0, and a subtle color change was visually apparent at pH of 8.3.

The nature of series [8]: Dissolving salts of the phenolate in water (Examples 14 and 17). Type of series: physicochemical. Particulars: salt from 1.4 grams cannabidiol, dried under vacuum; 90 milliliters. How it is done:
1.4 grams of pure cannabidiol was dissolved in 10 milliliters of 0.5 molar potassium hydroxide in ethanol to convert the cannabidiol into 2-[(1R,6R)-6-isopropenyl-3-methylcyclohex-2-en-1-yl]-3-hydroxy-5-pentylphenolate. A potassium salt of 2-[(1R,6R)-6-isopropenyl-3-methylcyclohex-2-en-1-yl]-3-hydroxy-5-pentylphenolate was formed by drying the ethanol solution under vacuum overnight. 90 milliliters of 100 millimolar aqueous sodium carbonate was added to the potassium salt of 2-[(1R,6R)-6-isopropenyl-3-methylcyclohex-2-en-1-yl]-3-hydroxy-5-pentylphenolate.
This example describes a successful attempt to produce a salt of 2-[(1R,6R)-6-isopropenyl-3-methylcyclohex-2-en-1-yl]-3-hydroxy-5-pentylphenolate that readily dissolves in water. A first aliquot from Example 16 was lyophilized to produce salts including a potassium 2-[(1R,6R)-6-isopropenyl-3-methylcyclohex-2-en-1-yl]-3-hydroxy-5-pentylphenolate salt and a sodium 2-[(1R,6R)-6-isopropenyl-3-methylcyclohex-2-en-1-yl]-3-hydroxy-5-pentylphenolate salt. […] The water was centrifuged to remove undissolved salt and to produce an aqueous solution of 2-[(1R,6R)-6-isopropenyl-3-methylcyclohex-2-en-1-yl]-3-hydroxy-5-pentylphenolate concentrate for inclusion in beverages.

The mark [9] stands for this setting: approximately 60 milligrams in 296 mL water, pH 9.1, oral over 5 to 10 minutes, one adult.

Values joined by “and” are separate entries in the source; they are usually repeats but may differ in a detail not shown here. Equal entries are not always repeated.

`C=C(C)[C@@H]1CCC(C)=C[C@H]1c1c(O)cc(CCCCC)cc1O` [2-[(1R,6R)-6-isopropenyl-3-methylcyclohex-2-en-1-yl]-3-hydroxy-5-pentylphenolate]: the “color change from purple to colorless” value in series [1] (pH's of 9.1 and above, 0.1 M carbonate/bicarbonate buffer) is “No color change”. Also, the “onset of a perceptible psychoactive effect” value in series [2] (setting [9]) is on record as “within minutes of ingestion”. Besides, in series [2] (setting [9]), the “time of marked perceptible psychoactive effect following ingestion” value is on record as “approximately 30 minutes”. Besides, the “individuals reporting rapid onset of a perceptible psychoactive effect within minutes of ingestion” value in series [2] (approximately 100 milligrams per liter, pH 9.1, varying amounts, oral over 5 to 10 minutes, four adults) is given as “Three of the four individuals”. The “time to psychoactive effects after ingestion” value in series [2] (dissolved in water, orally administered) is reported as “less than 5 minutes”. For the same molecule, the “concentration dissolved in water” value in series [3] (worked out from the olive oil samples) is reported as “about 78 milligrams per liter”. Moreover, the “appearance of the liquid” value in series [4] (approximately 10 milligrams in 500 milliliter DASANI water, pH about 8.5) is “transparent and lacked discernable color”; in series [4] (approximately 100 milligrams in 500 milliliter DASANI water, pH about 9.5) it was “transparent and purple”; in series [4] (approximately 400 milligrams in 1 liter ESSENTIA water, pH about 10) it was “purple and transparent”. Also, the “stability at high temperatures” value in series [5] was “unstable at high temperatures”.
What is called pKa is the pH at which an ionisable group is half protonated. On to `C=C(C)[C@@H]1CCC(C)=C[C@H]1c1c(O)cc(CCCCC)cc1O` [cannabidiol, 2-[(1R,6R)-6-isopropenyl-3-methylcyclohex-2-en-1-yl]-5-pentylbenzene-1,3-diol], for which the pKa in series [6] (Example 7, from carbon-filtered industrial hemp extract, read-out: pKa of cannabidiol in water) is greater than 9.1; in series [1] (Example 19, dilute aqueous solutions, read-out: pKa of cannabidiol), less than 9.1; in series [7], 8 to 8.5. In series [6] (Example 8, from cannabidiol isolate), the “pKa of cannabidiol in water” value is given as “greater than 9.1”. Besides, the “other cannabinoids in the olive oil samples” value in series [3] (HPLC with diode array detector) was “did not detect any other cannabinoid”. Moreover, the “cannabidiol content of olive oil samples” value in series [3] (reprotonated with acetic acid, 100 mL water extracted with 4 mL olive oil, two samples, HPLC) was 0.18 % by weight and 0.21 % by weight.
For the molecule `C=C(C)[C@@H]1CCC(C)=C[C@H]1c1c([O-])cc(CCCCC)cc1O.[K+]` [potassium salt of 2-[(1R,6R)-6-isopropenyl-3-methylcyclohex-2-en-1-yl]-3-hydroxy-5-pentylphenolate], the “dissolution in 100 millimolar aqueous sodium carbonate” value in series [8] is reported as “the majority of the salt remained in the solid phase”.
